# Assay results: US5616606A, “Oligopeptide antiretroviral agents” (priority 1995, dated 1997)
# Several values for one entry are separate records, joined by “and”; a condition that tells them apart may be missing. Equal entries are not always repeated. Entries after “also recorded” stand apart in the source; their conditions may differ. Where two headings read alike, the source gives them in different places.
# What was measured:
# [1] = tested on: HIV-1; details: for Anti-HIV-1 Activity (National Cancer Institute Designation): inactive, moderate or active; for INFECTED RESPONSE % of Control: Table IX
# [2] = tested on: poly(dA-dT); assay: ethidium displacement assay, poly(dA-dT); details: relative to ethidium 9.5 × 10^6 M^-1, average of repeat measurements
# [3] = molecular target: Moloney Leukemia Virus reverse transcriptase (Moloney murine leukemia virus, UniProt P03355); assay: inhibition of MLV associated reverse transcriptase activity
# [4] = tested on: T4 lymphocytes (CEM cell line); assay: NCI anti-HIV screen, toxicity control in uninfected cells; assay type: cell-based; details: Table IX
# [5] = tested on: HBV; assay: inhibition of HBV DNA replication in 2.2.15 cell cultures; assay type: cell-based; details: for INT[…] DNA MONO.: 24 hours following the 9th day of treatment; for INT[…] DNA MONO. / HBV VIRION DNA DAY 0 / HBV VIRION DNA DAY 6 / HBV VIRION DNA DAY 9: single well
# [6] = solubility in DMSO, MeOH, H2O; assay type: physicochemical
# [7] = tested on: 2.2.15 cells; assay: toxicity analysis, neutral red dye uptake in 2.2.15 cells; details: triplicate, ± standard deviation
# [8] = tested on: Moloney murine leukemia virus (MLV); assay: anti-Moloney murine leukemia virus (MLV) plaque test; assay type: cell-based; details: anti-MLV plaque count
# [9] = tested on: SC-1 cells; assay: toxicity TD50 reported with the anti-MLV test; details: Table IV
# [10] = 10 μM, listed as Compound 14, dihydrochloride
# [11] = 50 μM, listed as Compound 14, dihydrochloride
structure (smiles),measurement,setting,value
"Cl.Cl.Cn1cc(NC(=O)c2cc(NC(=O)[C@@H]3C[C@H]3C(=O)Nc3cc(C(=O)Nc4cc(C(=O)NCCC(=N)N)n(C)c4)n(C)c3)cn2C)cc1C(=O)NCCC(=N)N [Compound 23b, N,N'-Di(1-methyl-2-[1-methyl-2-carboxamide-(3-proprionamidine)-4-pyrrole]-4-pyrrolyl)transcylcopropyldicarboxamide dihydrochloride]",EC50,[1]; Table XI,3.44 µM
same,Anti-HIV-1 Activity (National Cancer Institute Designation),[1],Moderate
same,Kapp,[2],5.3e+07 M⁻¹
same,ID50 (average ± SD),[3]; 50% inhibitory dose after 120 min incubation,7.0 ± 3.6 µg/mL
"O=C(O)C1=CC(=C(c2ccc(O)c(C(=O)O)c2)c2ccc(O)c(C(=O)O)c2)C=CC1=O [Aurintricarboxylic acid, reference compound]",IC50,[3],3.36 µM
Cl.Cl.Cn1cc(NC(=O)c2cc(NC(=O)/C=C\C(=O)Nc3cc(C(=O)Nc4cc(C(=O)NCCC(=N)N)n(C)c4)n(C)c3)cn2C)cc1C(=O)NCCC(=N)N [Compound 22b],[…] % of Control,[4]; dose 3.02 × 10^-4 Molar,-0.86 % of Control
same,[…] % of Control,[4]; dose 3.03 × 10^-5 Molar,112.05 % of Control
same,[…] % of Control,[4]; dose 3.03 × 10^-6 Molar,103.19 % of Control
same,[…] % of Control,[4]; dose 3.04 × 10^-7 Molar,100.16 % of Control
same,[…] % of Control,[4]; dose 9.54 × 10^-5 Molar,94.16 % of Control
same,[…] % of Control,[4]; dose 9.57 × 10^-4 Molar,5.40 % of Control
same,[…] % of Control,[4]; dose 9.59 × 10^-6 Molar,112.20 % of Control
same,[…] % of Control,[4]; dose 9.61 × 10^-7 Molar,100.02 % of Control
same,INT[…] DNA MONO.,[5]; [10],2.5 pg/μg CELL DNA and 2.2 pg/μg CELL DNA and 2.3 pg/μg CELL DNA and 2.1 pg/μg CELL DNA
same,HBV VIRION DNA DAY 0,[5]; [10],50 pg/ml CULTURE MEDIUM and 61 pg/ml CULTURE MEDIUM and 55 pg/ml CULTURE MEDIUM and 67 pg/ml CULTURE MEDIUM
same,HBV VIRION DNA DAY 6,[5]; [10],110 pg/ml CULTURE MEDIUM and 120 pg/ml CULTURE MEDIUM and 77 pg/ml CULTURE MEDIUM and 87 pg/ml CULTURE MEDIUM
same,HBV VIRION DNA DAY 9,[5]; [10],21 pg/ml CULTURE MEDIUM and 25 pg/ml CULTURE MEDIUM and 22 pg/ml CULTURE MEDIUM and 20 pg/ml CULTURE MEDIUM
same,INT[…] DNA MONO.,[5]; [11],1.9 pg/μg CELL DNA and 2.0 pg/μg CELL DNA and 2.3 pg/μg CELL DNA
same,HBV VIRION DNA DAY 0,[5]; [11],71 pg/ml CULTURE MEDIUM and 89 pg/ml CULTURE MEDIUM and 51 pg/ml CULTURE MEDIUM and 92 pg/ml CULTURE MEDIUM
same,HBV VIRION DNA DAY 6,[5]; [11],26 pg/ml CULTURE MEDIUM and 27 pg/ml CULTURE MEDIUM and 36 pg/ml CULTURE MEDIUM and 37 pg/ml CULTURE MEDIUM
same,HBV VIRION DNA DAY 9,"[5]; 50 μM, zero = undetectable, cutoff 0.1 pg/ml",1 pg/ml CULTURE MEDIUM
same,effect on HBV replication (in words),"[5]; tested at 50 and 10 μM, compared with 2',3'-ddC, listed as 14, dihydrochloride",just slightly less than that observed with the control; also recorded: potent inhibitors
same,Solubility in DMSO,[6]; DMSO,good
same,Solubility in MeOH,[6]; MeOH,good
same,INFECTED RESPONSE % of Control,[1]; dose 3.02 × 10^-4 Molar,-0.29 % of Control
same,INFECTED RESPONSE % of Control,[1]; dose 3.03 × 10^-5 Molar,114.32 % of Control
same,INFECTED RESPONSE % of Control,[1]; dose 3.03 × 10^-6 Molar,44.03 % of Control
same,INFECTED RESPONSE % of Control,[1]; dose 3.04 × 10^-7 Molar,28.75 % of Control
same,INFECTED RESPONSE % of Control,[1]; dose 9.54 × 10^-5 Molar,84.02 % of Control
same,INFECTED RESPONSE % of Control,[1]; dose 9.57 × 10^-4 Molar,-0.14 % of Control
same,INFECTED RESPONSE % of Control,[1]; dose 9.59 × 10^-6 Molar,115.19 % of Control
same,INFECTED RESPONSE % of Control,[1]; dose 9.61 × 10^-7 Molar,32.14 % of Control
same,Anti-HIV-1 Activity (National Cancer Institute Designation),[1],Active
same,Kapp,[2],3.8e+07 M⁻¹
same,NEUTRAL RED DYE UPTAKE,[7]; 10 μg/ml,99 ± 2 % OF CONTROL
same,NEUTRAL RED DYE UPTAKE,[7]; 30 μg/ml,98 ± 1 % OF CONTROL
same,NEUTRAL RED DYE UPTAKE,[7]; 100 μg/ml,99 ± 1 % OF CONTROL
same,NEUTRAL RED DYE UPTAKE,[7]; 300 μg/ml,85 ± 2 % OF CONTROL
Cc1cn([C@H]2C[C@H](N=[N+]=[N-])[C@@H](CO)O2)c(=O)[nH]c1=O [AZT],"Activity, MIC50",[8],0.0014 µg/mL
same,"Toxicity, TD50",[9],> 100.00 ug/mL^-1
